Structures can show the parent of a compound that is named as a salt.
Experiments:
[1] = tested on: repetitive cold stress rat models; test: Test for inhibition of pain threshold decrease by repetitive cold stress (continuous administration), Randall-Selitto method; format: in vivo; conditions: for Rate of inhibition of pain threshold decrease (%): rat, in vivo; for Rate of inhibition of pain threshold decrease (%) / inhibition in vivo at 3 mg/kg: po; for inhibition in vivo at 3 mg/kg: Rattus norvegicus, 192 h, day 8 after applying the repetitive cold stress, orally 3 mg/kg once a day, with stress, average of 5 or 6 cases, read-out: Rate of inhibition of pain threshold decrease (%)
[2] = tested on: repetitive cold stress rat models; test: Test for inhibition of pain threshold decrease by repetitive cold stress (single administration), Randall-Selitto method; format: in vivo; conditions: 24 hours after single administration on day 8 of repetitive cold stress; orally 3 mg/kg; with stress; average of 6 cases

SMILES	Rate of inhibition of pain threshold decrease (%) ([1]; 3 mg/kg)	Pain threshold (mmHg) [2] [mmHg]	Rate of inhibition of pain threshold decrease (%) [2] [%]	inhibition in vivo at 3 mg/kg [1] [%]	other results
CC(=O)OC(C(=O)O)C(OC(C)=O)C(=O)O.CCOCCN(CCCOc1ccc(OC)cc1C1Sc2cc(Cl)ccc2N1C(C)=O)C(C)C (single isomer, unassigned; (+)) [Compound C, (+)-3-acetyl-6-chloro-2-[2-(3-(N-(2-ethoxyethyl)-N-isopropylamino)propoxy)-5-methoxyphenyl]benzothiazolinediacetyl tartrate]	73.4	21.7	0	–	–
CC(=O)OC(C(=O)O)C(OC(C)=O)C(=O)O.COCCN(CCCOc1ccc(OC)cc1C1Sc2cc(Cl)ccc2N1C(C)=O)C(C)C (single isomer, unassigned; (+)) [Compound B, (+)-3-acetyl-6-chloro-2-[2-(3-(N-(2-methoxyethyl)-N-isopropylamino)propoxy)-5-methoxyphenyl]benzothiazolinediacetyl tartrate]	53.9	21.5	−1.9	–	–
CCOCCN(CCCOc1ccc(OC)cc1C1Sc2cc(Cl)ccc2N1C(C)=O)C(C)C.Cl (stereo not drawn) [Compound K, 3-acetyl-6-chloro-2-[2-(3-(N-(2-ethoxyethyl)-N-isopropylamino)propoxy)-5-methoxyphenyl]benzothiazolinediacetyl hydrochloride]	–	–	–	–	Rate of inhibition of pain threshold decrease (%) ([1]; 10 mg/kg): 62.7%
COc1ccc(OCCCN(CCOC(C)=O)C(C)C)c(C2Sc3cc(Cl)ccc3N2C(C)=O)c1 (single isomer, unassigned; (+)) [Compound H, (+)-2-[2-(3-(N-(2-acetoxyethyl)-N-isopropylamino)propoxy)-5-methoxyphenyl]-3-acetyl-6-chlorobenzothiazoline hydrochloride]	–	–	–	34.5	–
O=C(O)Cc1ccccc1Nc1c(Cl)cccc1Cl [Compound L, Diclofenac, reference compound]	–	–	–	–	activity on inhibiting a decrease in pain threshold ([1]; result in words, continuous administration once a day, day 8 of repetitive cold stress): not observed at all
COc1ccc(OC(C)CCN(CCO)C(C)C)c(C2Sc3cc(Cl)ccc3N2C(C)=O)c1 (stereo not drawn) [Compound G, 3-acetyl-6-chloro-2-[2-(3-(N-(2-hydroxyethyl)-N-isopropylamino)-1-methylpropoxy)-5-methoxyphenyl]benzothiazoline hydrochloride]	–	–	–	32.8	–
COc1ccc(OCCCCl)c(C2Sc3cc(Cl)ccc3N2C(C)=O)c1 (single isomer, unassigned; (+)) [Compound F, (+)-3-acetyl-6-chloro-2-[2-(3-chloropropoxy)-5-methoxyphenyl]benzothiazoline hydrochloride]	–	–	–	43.1	–
COc1ccc(OCCCN(CCO)C(C)C)c(C2Sc3cc(Cl)ccc3N2C(C)=O)c1.Cl (single isomer, unassigned; (+)) [Compound A, (+)-3-acetyl-6-chloro-2-[2-(3-(N-(2-hydroxyethyl)-N-isopropylamino)propoxy)-5-methoxyphenyl]benzothiazoline hydrochloride]	–	21.7	0	52.1	–
COCOCCN(CCCOc1ccc(OC)cc1C1Sc2cc(Cl)ccc2N1C(C)=O)C(C)C.Cl (single isomer, unassigned; (+)) [Compound I, (+)-3-acetyl-6-chloro-2-[2-(3-(N-isopropyl-(N-methoxymethyloxyethyl)amino)propoxy)-5-methoxyphenyl]benzothiazoline hydrochloride]	43.1	–	–	–	–
